{"source": "patent US20250152592A1", "about": "“PHARMACEUTICAL COMPOSITION COMPRISING ALLOPURINOL, FEBUXOSTAT OR PHARMACEUTICALLY ACCEPTABLE SALT THEREOF FOR PREVENTION OR TREATMENT OF CHRONIC KIDNEY DISEASE IN SUBJECT HAVING HIGH SERUM URIC ACID CONCENTRATION” (Indream Healthcare Inc., priority 2022, published 2025)", "key": {"[1]": {"system": "patients with gout and a history of major cardiovascular diseases", "experiment": "eGFR over time by average serum uric acid concentration, analysis of clinical trial data", "type": "in vivo, human", "conditions": "for eGFR Mean (95% CI): allopurinol group", "protocol": "(§1) In order to evaluate non-inferiority of febuxostat to allopurinol related to cardiovascular risk, a clinical trial was designed and proceeded.\n(§2) A multicenter, randomized, double-blind non-inferiority trial was performed. The details of the clinical trial design have been published previously. An independent data and safety monitoring committee with access to unblinded data monitored the clinical trial. The statistical analysis for the data and the safety monitoring committee was performed by an independent statistical group (WebbWrites).\n(§3) The patients were regarded as having a history of major cardiovascular diseases, if they had myocardial infarction, hospitalization for unstable angina, stroke, hospitalization for transient ischemic attack, peripheral vascular disease, or diabetes mellitus symptoms. All participants provided a prior informed consent form.\n(§4) The patients were randomly assigned so that they received febuxostat or allopurinol administered once a day in a double-blind manner. The randomization was stratified according to the estimated creatinine clearance at baseline (patient group having an estimated creatinine clearance ≥60 ml per minute vs patient group having an estimated creatinine clearance ≥30 and <60 ml per minute).\n(§5) The dose of allopurinol was modified according to a kidney function. The patients with the estimated creatinine clearance 60 ml or more per minute i) initially received allopurinol at a dose of 300 mg once a day, and the dose was increased in 100 mg increments monthly until the patient had the serum uric acid concentration of less than 6.0 mg per deciliter or the dosage of allopurinol was 600 mg once a day. The patient having the estimated creatinine clearance of 30 ml or more and less than 60 ml per minute initially received 200 mg of allopurinol, and then the dose was increased in 100 mg increments until the patient either had the serum uric acid concentration of less than 6.0 mg per deciliter or was receiving the allopurinol dose of 400 mg once daily.\n(§6) The dose of febuxostat was not modified according to the kidney function. The patients who were randomly assigned to receive febuxostat initially received 40 mg once a daily, and continued to receive the same dosage if the serum uric acid concentration was less than 6.0 mg per deciliter after 2 weeks of the treatment. If the serum uric acid concentration was higher than 6.0 mg per deciliter at 2nd week visit, the dose of febuxostat was increased to 80 mg once daily for the remainder of the trial.\n(§7) During the period, the administration of a double-blind and double-dummy trial medications was guided by an interactive voice-response system which was a procedure to prevent unblinding for the patients whose dose was not adjusted. After completing dose adjustment, the urate level was concealed from the investigators, and the treatment was managed throughout the trial using the interactive voice-response system.\n(§8) Outpatient visits were conducted according to the following schedule: during screening and randomization, and at 2, 4, 6, 8, 10, 12, and 24 weeks after the randomization, and every 6 months during the subsequent years of the trial. The patients with reduced kidney function or, the patients aged 65 years or older at randomization were visited at 9 and 15 months for monitoring the serum chemical profile. If the patient agreed to be monitored, but would not return for study visit, telephone contact was made, but such method was not preferred or recommended.\nIn order to confirm the effect of allopurinol and febuxostat on the kidney disease, the data obtained in the clinical trial described above was analyzed."}, "[2]": {"system": "patients with gout and a history of major cardiovascular diseases", "experiment": "clinical trial febuxostat vs allopurinol: serum uric acid, gout flare, treatment discontinuation", "type": "in vivo, human", "conditions": "overall, during the trial", "protocol": "as §1, §2, §3, §4, §5, §6, §7, §8"}}}
{"smiles": "Oc1ncnc2[nH]ncc12", "note": "[allopurinol]", "values": [{"measurement": "eGFR Mean (95% CI)", "setting": "[1]; No congestive cardiac failure history, Average UA <6, Baseline", "value": "66.85 (65.82-67.88) ml/min/1.73 m^2"}, {"measurement": "eGFR Mean (95% CI)", "setting": "[1]; No congestive cardiac failure history, Average UA <6, Month 3", "value": "67.32 (66.24-68.40) ml/min/1.73 m^2"}, {"measurement": "eGFR Mean (95% CI)", "setting": "[1]; No congestive cardiac failure history, Average UA <6, Month 12", "value": "68.74 (67.63-69.86) ml/min/1.73 m^2"}, {"measurement": "eGFR Mean (95% CI)", "setting": "[1]; No congestive cardiac failure history, Average UA <6, Month 18", "value": "68.64 (67.39-69.88) ml/min/1.73 m^2"}, {"measurement": "eGFR Mean (95% CI)", "setting": "[1]; No congestive cardiac failure history, Average UA <6, Month 24", "value": "68.73 (67.42-70.03) ml/min/1.73 m^2"}, {"measurement": "eGFR Mean (95% CI)", "setting": "[1]; No congestive cardiac failure history, Average UA <6, Month 30", "value": "69.45 (68.01-70.89) ml/min/1.73 m^2"}, {"measurement": "eGFR Mean (95% CI)", "setting": "[1]; No congestive cardiac failure history, Average UA <6, Month 36", "value": "68.02 (66.49-69.55) ml/min/1.73 m^2"}, {"measurement": "eGFR Mean (95% CI)", "setting": "[1]; No congestive cardiac failure history, Average UA <6, Month 42", "value": "67.59 (65.93-69.25) ml/min/1.73 m^2"}, {"measurement": "eGFR Mean (95% CI)", "setting": "[1]; No congestive cardiac failure history, Average UA <6, Month 48", "value": "68.44 (66.56-70.31) ml/min/1.73 m^2"}, {"measurement": "eGFR Mean (95% CI)", "setting": "[1]; No congestive cardiac failure history, Average UA <6, Month 54", "value": "67.90 (65.79-70.00) ml/min/1.73 m^2"}, {"measurement": "eGFR Mean (95% CI)", "setting": "[1]; No congestive cardiac failure history, Average UA <6, Month 60", "value": "68.53 (66.05-71.01) ml/min/1.73 m^2"}, {"measurement": "eGFR Mean (95% CI)", "setting": "[1]; No congestive cardiac failure history, Average UA <6, Week 2", "value": "66.55 (65.48-67.62) ml/min/1.73 m^2"}, {"measurement": "eGFR Mean (95% CI)", "setting": "[1]; No congestive cardiac failure history, Average UA ≥6, Baseline", "value": "66.51 (64.92-68.09) ml/min/1.73 m^2"}, {"measurement": "eGFR Mean (95% CI)", "setting": "[1]; No congestive cardiac failure history, Average UA ≥6, Month 12", "value": "66.77 (65.07-68.46) ml/min/1.73 m^2"}, {"measurement": "eGFR Mean (95% CI)", "setting": "[1]; No congestive cardiac failure history, Average UA ≥6, Month 18", "value": "66.07 (64.15-67.99) ml/min/1.73 m^2"}, {"measurement": "eGFR Mean (95% CI)", "setting": "[1]; No congestive cardiac failure history, Average UA ≥6, Month 24", "value": "65.54 (63.37-67.72) ml/min/1.73 m^2"}, {"measurement": "eGFR Mean (95% CI)", "setting": "[1]; No congestive cardiac failure history, Average UA ≥6, Month 30", "value": "65.30 (62.89-67.70) ml/min/1.73 m^2"}, {"measurement": "eGFR Mean (95% CI)", "setting": "[1]; No congestive cardiac failure history, Average UA ≥6, Month 36", "value": "65.27 (62.40-68.13) ml/min/1.73 m^2"}, {"measurement": "eGFR Mean (95% CI)", "setting": "[1]; No congestive cardiac failure history, Average UA ≥6, Month 42", "value": "63.38 (60.35-66.41) ml/min/1.73 m^2"}, {"measurement": "eGFR Mean (95% CI)", "setting": "[1]; No congestive cardiac failure history, Average UA ≥6, Month 48", "value": "63.38 (59.80-66.95) ml/min/1.73 m^2"}, {"measurement": "eGFR Mean (95% CI)", "setting": "[1]; No congestive cardiac failure history, Average UA ≥6, Month 54", "value": "66.44 (62.69-70.18) ml/min/1.73 m^2"}, {"measurement": "eGFR Mean (95% CI)", "setting": "[1]; No congestive cardiac failure history, Average UA ≥6, Month 60", "value": "63.14 (59.01-67.28) ml/min/1.73 m^2"}, {"measurement": "eGFR Mean (95% CI)", "setting": "[1]; No congestive cardiac failure history, Average UA ≥6, Week 2", "value": "66.92 (65.28-68.56) ml/min/1.73 m^2"}, {"measurement": "eGFR Mean (95% CI)", "setting": "[1]; SBP <130, Average UA <6, Baseline", "value": "65.08 (63.67-66.50) ml/min/1.73 m^2"}, {"measurement": "eGFR Mean (95% CI)", "setting": "[1]; SBP <130, Average UA <6, Month 3", "value": "66.19 (64.73-67.66) ml/min/1.73 m^2"}, {"measurement": "eGFR Mean (95% CI)", "setting": "[1]; SBP <130, Average UA <6, Month 6", "value": "66.44 (64.96-67.92) ml/min/1.73 m^2"}, {"measurement": "eGFR Mean (95% CI)", "setting": "[1]; SBP <130, Average UA <6, Month 12", "value": "67.55 (66.04-69.06) ml/min/1.73 m^2"}, {"measurement": "eGFR Mean (95% CI)", "setting": "[1]; SBP <130, Average UA <6, Month 18", "value": "67.41 (65.73-69.08) ml/min/1.73 m^2"}, {"measurement": "eGFR Mean (95% CI)", "setting": "[1]; SBP <130, Average UA <6, Month 24", "value": "67.26 (65.46-69.07) ml/min/1.73 m^2"}, {"measurement": "eGFR Mean (95% CI)", "setting": "[1]; SBP <130, Average UA <6, Month 30", "value": "68.14 (66.20-70.08) ml/min/1.73 m^2"}, {"measurement": "eGFR Mean (95% CI)", "setting": "[1]; SBP <130, Average UA <6, Month 36", "value": "67.41 (65.30-69.51) ml/min/1.73 m^2"}, {"measurement": "eGFR Mean (95% CI)", "setting": "[1]; SBP <130, Average UA <6, Month 42", "value": "67.67 (65.45-69.89) ml/min/1.73 m^2"}, {"measurement": "eGFR Mean (95% CI)", "setting": "[1]; SBP <130, Average UA <6, Month 48", "value": "67.55 (64.98-70.13) ml/min/1.73 m^2"}, {"measurement": "eGFR Mean (95% CI)", "setting": "[1]; SBP <130, Average UA <6, Month 54", "value": "67.54 (64.81-70.27) ml/min/1.73 m^2"}, {"measurement": "eGFR Mean (95% CI)", "setting": "[1]; SBP <130, Average UA <6, Month 60", "value": "66.85 (63.63-70.06) ml/min/1.73 m^2"}, {"measurement": "eGFR Mean (95% CI)", "setting": "[1]; SBP <130, Average UA <6, Week 2", "value": "65.12 (63.70-66.55) ml/min/1.73 m^2"}, {"measurement": "eGFR Mean (95% CI)", "setting": "[1]; SBP <130, Average UA ≥6, Baseline", "value": "61.00 (58.76-63.25) ml/min/1.73 m^2"}, {"measurement": "eGFR Mean (95% CI)", "setting": "[1]; SBP <130, Average UA ≥6, Month 3", "value": "62.77 (60.42-65.12) ml/min/1.73 m^2"}, {"measurement": "eGFR Mean (95% CI)", "setting": "[1]; SBP <130, Average UA ≥6, Month 6", "value": "62.65 (60.33-64.97) ml/min/1.73 m^2"}, {"measurement": "eGFR Mean (95% CI)", "setting": "[1]; SBP <130, Average UA ≥6, Month 12", "value": "62.21 (59.86-64.55) ml/min/1.73 m^2"}, {"measurement": "eGFR Mean (95% CI)", "setting": "[1]; SBP <130, Average UA ≥6, Month 18", "value": "62.34 (59.64-65.04) ml/min/1.73 m^2"}, {"measurement": "eGFR Mean (95% CI)", "setting": "[1]; SBP <130, Average UA ≥6, Month 24", "value": "60.72 (57.61-63.83) ml/min/1.73 m^2"}, {"measurement": "eGFR Mean (95% CI)", "setting": "[1]; SBP <130, Average UA ≥6, Month 30", "value": "62.43 (59.06-65.81) ml/min/1.73 m^2"}, {"measurement": "eGFR Mean (95% CI)", "setting": "[1]; SBP <130, Average UA ≥6, Month 36", "value": "61.08 (57.19-64.97) ml/min/1.73 m^2"}, {"measurement": "eGFR Mean (95% CI)", "setting": "[1]; SBP <130, Average UA ≥6, Month 42", "value": "60.98 (56.66-65.31) ml/min/1.73 m^2"}, {"measurement": "eGFR Mean (95% CI)", "setting": "[1]; SBP <130, Average UA ≥6, Month 48", "value": "64.66 (59.55-69.76) ml/min/1.73 m^2"}, {"measurement": "eGFR Mean (95% CI)", "setting": "[1]; SBP <130, Average UA ≥6, Month 54", "value": "64.80 (59.14-70.46) ml/min/1.73 m^2"}, {"measurement": "eGFR Mean (95% CI)", "setting": "[1]; SBP <130, Average UA ≥6, Month 60", "value": "65.01 (58.65-71.37) ml/min/1.73 m^2"}, {"measurement": "eGFR Mean (95% CI)", "setting": "[1]; SBP <130, Average UA ≥6, Week 2", "value": "62.24 (60.01-64.47) ml/min/1.73 m^2"}, {"measurement": "prevention or treatment of chronic kidney disease when serum uric acid maintained below 6", "setting": "[1]; blood glucose ≥126 mg/dl, DBP ≤80 mm/Hg, SBP ≤130 mm/Hg, or no congestive cardiac failure", "value": "effectively prevented or treated"}, {"measurement": "rate of gout flare", "setting": "[2]", "value": 0.63, "unit": "per patient-year"}]}
